Measured values taken from article PMC11920646 (Frontiers in Pharmacology, 2025).
Several values for one entry are separate records, joined by “and”; a condition that tells them apart may be missing. Identical values can stand only once.

Legend:
[1] = tested on: IL-6 release in A549 cells; parameters: method as in Hu et al., 2011; conditions: dagrocorat study ref Hu et al., 2011; cited from earlier work
human GR = target: T1, human GR (Homo sapiens, UniProt P04150); experiment: GR reporter gene (transactivation) assay, CHO-Gal4/GR; type: cell-based; conditions: % of reference agonist beclomethasone
T1 construct: host or cells: CHO (DSMZ ACC-110), CHO-Gal4/GR
T1 sequence (P04150 524-758 limits assumed): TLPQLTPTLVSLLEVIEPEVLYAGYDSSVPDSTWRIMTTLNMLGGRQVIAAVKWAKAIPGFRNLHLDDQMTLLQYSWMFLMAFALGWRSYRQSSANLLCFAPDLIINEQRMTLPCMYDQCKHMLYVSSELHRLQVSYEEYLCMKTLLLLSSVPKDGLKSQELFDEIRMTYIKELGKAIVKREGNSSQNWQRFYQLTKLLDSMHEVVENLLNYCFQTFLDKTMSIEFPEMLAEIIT
Excerpt: To create the CHO-Gal4/GR, CHO-Gal4/PR, and CHO-Gal4/MR reporter cell lines, first CHO cells were stably transfected with a GAL4-UAS-luciferase reporter construct. Then, the LBD of the GR, PR, or MR (GR Gene ID: 2908, PR Gene ID: 5241, MR Gene ID: 4306, respectively) was cloned into pIRES2-EGFP-GAL4 containing the DBD of GAL4 from pFA-AT2, and then co-transfected into the luciferase-reporter construct-containing CHO cells. These reporter cell lines express the respective nuclear hormone receptor LBD-DBD fusion proteins that control luciferase expression of a GAL4-upstream activation sequence (UAS)-luciferase reporter construct, allowing for detection of ligand- or compound-induced transactivation at the GR, PR, or MR by measuring luciferase activity.
Cryo-preserved CHO-Gal4/GR, CHO-Gal4/PR, and CHO-Gal4/MR cells were plated in medium at 7,500 cells/well in 384-well assay plates (25 μL/well), and incubated for 24 h. […] Following a 4-h incubation, cells were lysed and luminescence measured using the EMCCD camera FLIPR®Tetra (Molecular Devices, Silicon Valley, CA, United States).
Transactivation (i.e., gene activation) was expressed as a percentage of the reference agonist activity (Supplementary Material), using Genedata Screener® v15.0.5 software (Basel, Switzerland).
Transactivation was calculated according to this equation: […]

[2] = tested on: OPG release in human osteoblast cell line MG-63; experiment: Inhibition of OPG release in MG-63 osteoblast cells; type: cell-based; conditions: MG-63 cells, 24 h
Experimental: ([Humphrey et al., 2006]). […] After a 24-h incubation in standard conditions, supernatant was collected and OPG measured using the human osteoprotegerin/TNFRSF11B DuoSet® ELISA (R&D Systems, Minneapolis, MN, United States), according to the manufacturer’s instructions (Supplementary Material). A 3-parameter nonlinear regression was performed using GraphPad PRISM v7.03 software (Graphpad Software Inc.) to determine IC50 values.
All incubations in this assay were conducted at room temperature. Anti-OPG capture antibodies, diluted in Dulbecco's phosphate-buffered saline (DPBS), were transferred into a coated 96-well plate (100 µL/well). After overnight incubation, and triplicate washing (400 µL/well) with wash buffer (0.05% Tween 20 in DPBS, pH 7.2–7.4), 300 µL of Reagent Diluent (1% bovine serum albumin [BSA] in DPBS) was added, followed by a 1-h incubation, and thereafter three washing steps again. Then, 100 µL of supernatant, standard or reagent diluent were added per well for a 2-h incubation. After repeating three washing steps, 100 µL of detection antibody diluted in reagent diluent (including normal goat serum) were added to each well, followed by a 2-h incubation. After repeating three washing steps, 100 µL of Streptavidin conjugated to horseradish-peroxidase solution was added per well for a 20-min incubation. Finally, 50 µL/well of stop solution was added. After gently shaking of the plate to ensure thorough mixing, the optical density of each well was determined immediately using the Eon™ Microplate Spectrophotometer (Bio Tek Instruments) set at 450 nm.
Supplementary Figure S2. […] Error bars indicate standard error of the mean. […] Log c, log concentration.

[3] = tested on: tyrosine aminotransferase (TAT) activity in HepG2 cells; experiment: Induction of TAT enzyme activity in HepG2 cells; type: cell-based, human; conditions: for EC50: 24 h; for Efficacy, induction of TAT enzyme activity: relative to dexamethasone, GRM-01 maximum at 10 µM
Experimental: TAT is a key enzyme in gluconeogenesis under the control of glucocorticoids and their interaction with the GR ([Panin and Usynin, 2008]), where induction of TAT expression is mediated through GR transactivation.
HepG2 cells were seeded at 20,000 cells/well in an Eagles’ minimal essential medium (EMEM)-based cell culture medium (Supplementary Material) in 96-well plates and incubated for 24 h in standard conditions. […] Medium was removed, cells washed with 50 μL of phosphate buffered saline (PBS) solution and lysis buffer added (45 µL/well) for a 20-min incubation in agitation at 1,200 rpm at room temperature. Detection buffer (150 µL/well) was added for a 2-h incubation after which the reaction was stopped, followed by a 30-min incubation, all at 37°C. This reaction solution was transferred to an absorbance detection plate (5 µL/well) to measure TAT expression (Envision plate reader, PerkinElmer).
The HepG2 cell culture medium was comprised of 500 mL of Eagles’ minimal essential medium (EMEM) without L-glutamine, 5 mL of 100X penicillin/streptomycin, 5 mL of Ultraglutamine I Supplement 200 mM, 5 mL of non-essential amino acids (NEAA) 100X (all from Lonza), and 50 mL of FBS (Sigma).
% activation= compound -minmax- min ×100
where min = TAT expression in medium only, max = TAT expression after stimulation with dexamethasone

[4] = tested on: LPS-induced TNF-α release in rat whole blood; experiment: Inhibition of LPS-induced TNF-α release in rat whole blood; type: cell-based; conditions: 18 h
Experimental: Arterial blood was collected from male Sprague-Dawley rats (180–250 g; Janvier Labs, Le Genest-Saint-Isle, France) in heparin syringes. […] Plasma was collected via centrifugation and TNF-α measured using a TNFalpha Kit (PerkinElmer, Waltham, MA, United States), according to manufacturers’ instructions, and a microplate reader (EnVision Multilabel Reader®, PerkinElmer; Supplementary Material). The IC50 values for inhibition of TNF-α release were calculated by fitting concentration response curves to a four parameter nonlinear regression model using ActivityBase (XLfit® software; ID Business Solutions Ltd.). […] In addition, IC50,free values were determined by correcting the IC50 values for plasma protein binding (PPB); see the Supplementary Material for the calculation.
The immuno-assay-buffer provided in the kit was diluted 1:10 in water and the mouse TNF-α analyte standard was diluted in rat plasma (30,000–4 pg/mL). […] After a 30-min incubation at room temperature, the plates were read using an EnVision Multilabel Reader® (PerkinElmer) equipped with the ALPHA option using the AlphaScreen standard settings. […]

[5] = tested on: SCW-induced ankle inflammation in female Lewis rats; experiment: Rat streptococcal cell wall (SCW) model of joint inflammation; type: in vivo
Experimental: Female Lewis rats (150–200 g, Charles River, United Kingdom) were used for the model of joint inflammation (see Supplementary Material for animal care), with in vivo efficacy assays conducted at the Saretius Ltd., Science and Technology Centre (Reading, United Kingdom). Monoarticular joint inflammation was induced on Day −21 by intra-articular injection of 10 μg of streptococcal cell wall (SCW) extract (Lee Laboratories, BD Scientific, Franklin Lakes, NJ, United States) into the left hind ankle joint. […] Treatments, including control, were administered orally once daily on Days −1 to 6 of the study. Additionally, on Day 0, each rat received an intravenous (IV) dose of 100 μg SCW extract 2 h after oral dosing. IV injections were given after rats had spent up to 10 min in a 40°C hot box (Thermacage MK2, Datesand Ltd., Manchester, United Kingdom).
Rat ankle diameters were measured using digital calipers (Mitutoyo, United Kingdom, Model: CDS6CX), mechanical allodynia tested using von Frey hairs, and rats weighed, per the schedule in Supplementary Table S2. […] On Day 6, rats were euthanized by a schedule 1 method (carbon dioxide) and terminal blood samples collected by cardiac puncture. After centrifugation to obtain plasma supernatant (10,000 rpm, 3 min), plasma was stored at −20°C until analysis. […] Glucose test strips (Roche Accu-Check with Aviva blood glucose system meter) were used to measure blood glucose levels at the time blood was drawn. All data were analyzed with Statistica v11 software (StatSoft Inc., Tulsa, OK, United States), using the Kolmogorov-Smirnov test to assess normality of distribution (see Supplementary Material for further detail), and to determine total area under the concentration-time curve (AUC) using the trapezoidal method. […] The effect of each treatment on ankle inflammation was determined by the reduction in ipsilateral ankle AUC versus control.
Data that was not normally distributed were analyzed with Kruskal-Wallis analysis of variance (ANOVA) followed by Dunn’s multiple comparisons tests. Normally distributed data were analyzed with repeated measures ANOVAs as appropriate, one-way ANOVAs and Dunnett’s post hoc tests.

- GR transactivation, mean activation (efficacy) (human GR): 80.5% and 80.5 ± 2.2%
- IC50 ([2]; Homo sapiens): 3.1 ± 4.3 nM
- EC50 [3]: 284 ± 113 nM
- EC50 ([3]; Homo sapiens, HepG2, 24 h): 283 nM
- IC50 [4]: 8.1 ± 2.1 nM
- change in blood glucose AUC2.5–24h versus vehicle ([5]; Day 5, GRM-01 any dose 0.01–1 mg/kg/day, prednisolone 30 mg/kg/day): statistically significant increase
SMILES: C[C@]12C=CC(=O)C=C1CC[C@@H]1[C@@H]2[C@@H](O)C[C@@]2(C)[C@H]1CC[C@]2(O)C(=O)CO [Prednisolone]
- inhibition of IL-6 release in A549 cells [1]: 100%
- Inhibition of OPG release (maximal level) [2]: 100 ± 0%
- Inhibition of OPG release (maximal level) ([2]; listed as prednisolone): fully inhibiting OPG release
- Efficacy, induction of TAT enzyme activity [3]: 92.4 ± 5.3%
- Efficacy, induction of TAT enzyme activity ([3]; listed as prednisolone): 92.4% and 92%
- Inhibition of LPS-induced TNF-α release [4]: 99 ± 3%
- blood glucose at time points post dose versus vehicle ([5]; Day 5, GRM-01 at 2.5 h, all doses except 0.03 mg/kg/day, not dose dependent, prednisolone 30 mg/kg/day at 2.5, 4 and 6 h): significantly higher blood glucose levels
- effect on plasma corticosterone levels vs vehicle ([5]; Day 6, GRM-01 significant at 0.3 mg/kg/day (p < 0.01), prednisolone 30 mg/kg/day (p < 0.01)): reduced plasma corticosterone levels
- antinociceptive effect (ipsilateral paw withdrawal threshold vs vehicle) ([5]; GRM-01 0.1, 0.3, 1 mg/kg/day, prednisolone 30 mg/kg/day): demonstrated an antinociceptive effect
- ED50 ([5]; rat SCW model, separate and independent study, doses 0.003–30 mg/kg, read-out: ED50, change in AUC of ankle diameter): 2.49 mg/kg
